Counter-ions that a name gives are not always drawn. Like-named read-outs stand apart in the source and are kept apart here.
Tests used:
[1] = tested on: mild to moderate AD patients; settings: cited from earlier work
[2] = tested on: adrenal chromaffin and human neuroblastoma cells; settings: comparison cholinesterase inhibitor; cited from earlier work
Bv-2 microglial cells = assay: Aβ oligomer clearance measurement in Bv-2 microglial cell cultures; type: cell-based; settings: 0.33 μM galantamine; 24 h before oligomerized Aβ1-42 (10 μM) for 6 h
Experimental: Aβ oligomers were prepared using beta-amyloid (1-42) from American Peptide (Product #62-0-80). One aliquot was dissolved in an adequate volume of TBS (50 mM Tris-Buffer, 150 mM NaCl, pH-7.4) to achieve a final concentration of 1.7 mg/ml (corresponding to 340 μM). The solution was sonicated for 2 minutes and then diluted 1:2 in water to obtain a final concentration of 170 μM. Next, the Aβ was allowed to aggregate at 4° C. for 48 hours. Prior to application, the solution was sonicated for another minute.
Bv-2 microglial cells were kept in culture medium (DMEM medium, 10% FBS, 2 mM glutamine, 1% Penc/Strep) until 80-90% confluency. Cells were maintained at 37° C., 95% humidity and 5% CO2. Afterwards, cells were seeded in culture medium on 24-well plates at a cell density of 1×10^5 cells per well. After 24 h, the medium was exchanged for the treatment medium (DMEM medium, 5% FBS, 2 mM glutamine). […] The medium was separated by affinity (removing monomers) and the oligomers not phagocytosed were disaggregated by hexafluoroisopropanol (HFIP) treatment and measured by MSD. […]
The immune assay was carried out according to the Mesoscale Discovery manual and plates were read on the Sector Imager (MSD). Analyte levels were evaluated according to adequate Aβ peptide standards (MSD). […] Data are presented as mean ±standard error of mean (SEM) Group differences are evaluated by one-way ANOVA.

Rat cortical neurons = assay: Neurite assessment: Aβ1-42 oligomer injury of cortical neurons (MAP-2); type: cell-based; settings: 1 μM; Aβ oligomer 20 μM, 24 h
Experimental: Rat cortical neurons were cultured as described by Callizot et al (J Neurosci Res 2013; 91:706-716). On day II of culture, Aβ oligomer solution, 20 μM, was applied. The Aβ oligomer preparation, having an average weight of 90 kDa, prepared as described by Callizot et al (op cit) contained only diffusible species, not fibrils or protofibrils. Briefly, Aβ1-42 peptide at a concentration of 40 μM was dissolved in the culture medium, gently agitated for 3 days at 37° C. in the dark, and used immediately after dilution. Test compound and BDNF (50 ng/ml) were dissolved in culture medium (maximum of 0.1% DMSO final concentration) then pre-incubated with primary cortical neurons for 24 h before the Aβ1-42 oligomer solution application
The oligomers were incubated with the neurons and various concentrations of test compound or BDNF, 50 ng/ml, the positive control, for 24 hours, in 6 replicates per condition. Then the supernatant was removed and the neurons were fixed with a cold ethanol and acetic acid solution. The cells were permeabilized with 0.4% saponin and then incubated for 2 h with mouse monoclonal antibody […] microtubule-associated protein 2 (MAP-2). Subsequently, Alexa-Fluor 488 goat anti-mouse IgG was applied, and images were obtained and analyzed automatically.

[3] = tested on: CA1 pyramidal neurons in the dorsal hippocampus; assay: Dendritic spine assessment (Afraxis ESP) after five days ip dosing; type: in vivo, mice; settings: 0.1 mg/kg per day for five days
Experimental: Adult C57B16 mice, (8 weeks old) were administered vehicle or test sample, 0.005, 0.03, 0.07, 0.1 or 0.2 mg/kg, ip, per day for five days prior to sacrifice after rapid anesthetization with isofluorane. Brain tissue was sectioned into […] slices from anterior to posterior extremes.
Ballistic dye labelling was performed, followed by laser-scanning confocal microscopy (Olympus FV1000) using a 63× objective (1.42 NA) to scan individually labelled neurons at high resolution (0.103×0.103×0.33 μm voxels). Target neurons were identified in the brain region of interest by anatomical location and cell morphology. Microscopy was performed blind to experimental conditions. A minimum of 5 samples per animal were measured for each segment.
Afraxis ESP dendritic spine analysis and assessment of dendritic membrane integrity. Blind deconvolution (AutoQuant) was applied to raw three-dimensional digital images which were then analyzed for spine density and morphology by trained analysts, individual spines were measured manually for (a) head diameter, (b) length, and (c) neck thickness from image Z-stacks using custom-built Afraxis ESP software. Each dendrite was analyzed by 3 independent analysts. […]
Statistics. […] For all group comparisons of parametric values, statistical significance was determined using the analysis of variance test (ANOVA; SPSS). […]

Solanezumab: antibody directed at the central portion of Aβ
functional decline as measured by the ADCS-ADL ([1]; Expedition I): not significantly affected
reduction of functional decline as measured by the ADCS-ADL ([1]; Expedition II): 19%
additional cognitive deterioration on the ADAS-cog versus placebo ([1]; patients not receiving cholinesterase inhibitors (no SOC)): 3.6 points
additional cognitive deterioration on the ADAS-cog versus placebo ([1]; patients on memantine only): 4.1 points

Nc1c2c(nc3ccccc13)CCCC2 [tacrine]
neuroprotective effect against induced apoptosis [2]: did not occur

COc1ccc2c3c1O[C@H]1C[C@@H](O)C=C[C@@]31CCN(C)C2 [Galantamine hydrobromide]
Aβ1-42 oligomers in the medium (Bv-2 microglial cells): reduced Aβ1-42 oligomers in the medium significantly
protective effect on neurite network reduced by Aβ oligomer (Rat cortical neurons): significant protective effect
spine density in apical dendritic samples [3]: significant increase

Reference: patent publication US20180200259A1 (priority 2015, published 2018)
